Source: ChEMBL document CHEMBL4311992, “Discovery of 3-(((9H-purin-6-yl)amino)methyl)-4,6-dimethylpyridin-2(1H)-one derivatives as novel tubulin polymerization inhibitors for treatment of cancer” (Eur J Med Chem, 2019)

Assays:
[1] = target: Ribosomal protein S6 kinase alpha-2 (Homo sapiens) (UniProt Q15349); assay: Inhibition of recombinant full-length human Rsk3 assessed as residual activity at 10 uM using KKKNRTLSVA as substrate measured after 40 mins in presence of [gamma33P]ATP by scintillation counting method
[2] = tested on: Ribosomal protein S6 kinase alpha-1 (Rattus norvegicus), Q63531 [S637N,G697A]; assay: Inhibition of recombinant full-length rat Rsk1 S637N/G697A mutant assessed as residual activity at 10 uM using KKKNRTLSVA as substrate measured after 40 mins in presence of [gamma33P]ATP by scintillation counting method
[3] = target: Serine/threonine-protein kinase NIM1 (Homo sapiens) (UniProt Q8IY84); assay: Inhibition of recombinant full-length human NIM1 assessed as residual activity at 10 uM using KKKVSRSGLYRSPSMPENLNRPR as substrate measured after 40 mins in presence of [gamma33P]ATP by scintillation counting method
[4] = target: Serine/threonine-protein kinase Nek7 (Homo sapiens) (UniProt Q8TDX7); assay: Inhibition of recombinant human NEK7 (2 to end residues) assessed as residual activity at 10 uM using FLAKSFGSPNRAYKK as substrate measured after 40 mins in presence of [gamma33P]ATP by scintillation counting method
[5] = target: Serine/threonine-protein kinase Nek3 (Homo sapiens) (UniProt P51956); assay: Inhibition of recombinant full-length human NEK3 assessed as residual activity at 10 uM using myelin basic protein as substrate measured after 40 mins in presence of [gamma33P]ATP by scintillation counting method
[6] = target: Maternal embryonic leucine zipper kinase (Homo sapiens) (UniProt Q14680); assay: Inhibition of recombinant human MELK (1 to 340 residues) assessed as residual activity at 10 uM using KKLNRTLSFAEPG as substrate measured after 40 mins in presence of [gamma33P]ATP by scintillation counting method
[7] = target: Ephrin type-B receptor 4 (Homo sapiens) (UniProt P54760); assay: Inhibition of recombinant human EphB4 (561 to end residues) assessed as residual activity at 10 uM using poly (Glu, Tyr) 4:1 as substrate measured after 40 mins in presence of [gamma33P]ATP by scintillation counting method
[8] = target: Cyclin-dependent kinase 5/CDK5 activator 1 (Homo sapiens) (UniProt Q00535+Q15078); assay: Inhibition of recombinant full-length human CDK5/p35 assessed as residual activity at 10 uM using histone H1 as substrate measured after 40 mins in presence of [gamma33P]ATP by scintillation counting method; assay type: protein-complex assay
[9] = target: CDK7/Cyclin H/MNAT1 (Homo sapiens) (UniProt P51946+P50613+P51948); assay: Inhibition of recombinant full length human CDK7/cyclin H/MAT1 assessed as residual activity at 10 uM using peptide substrate measured after 40 mins in presence of [gamma33P]ATP by scintillation counting method; assay type: protein-complex assay
[10] = species: Homo sapiens; assay: Inhibition of recombinant human DDR1 V833L mutant (492 to end residues) assessed as residual activity at 10 uM using KKKSPGEYVNIEFG as substrate measured after 40 mins in presence of [gamma33P]ATP by scintillation counting method
[11] = target: Ephrin type-A receptor 1 (Homo sapiens) (UniProt P21709); assay: Inhibition of recombinant human EphA1 (568 to end residues) assessed as residual activity at 10 uM using KKKSPGEYVNIEF as substrate measured after 40 mins in presence of [gamma33P]ATP by scintillation counting method
[12] = target: Beta-adrenergic receptor kinase 1 (Homo sapiens) (UniProt P25098); assay: Inhibition of recombinant full-length human GRK2 assessed as residual activity at 10 uM using casein as substrate measured after 40 mins in presence of [gamma33P]ATP by scintillation counting method
[13] = target: Tyrosine-protein kinase HCK (Homo sapiens) (UniProt P08631); assay: Inhibition of recombinant human activated HCK (230 to 497 residues) assessed as residual activity at 10 uM using GGMEDIYFEFMGGKKK as substrate measured after 40 mins in presence of [gamma33P]ATP by scintillation counting method
[14] = target: Serine/threonine-protein kinase MAK (Homo sapiens) (UniProt P20794); assay: Inhibition of recombinant full-length human MAK assessed as residual activity at 10 uM using RRRFRPASPLRGPPK as substrate measured after 120 mins in presence of [gamma33P]ATP by scintillation counting method
[15] = target: Mitogen-activated protein kinase kinase kinase kinase 4 (Homo sapiens) (UniProt O95819); assay: Inhibition of recombinant human MAP4K4 (1 to 328 residues) assessed as residual activity at 10 uM using RLGRDKYKTLRQIRQ as substrate measured after 40 mins in presence of [gamma33P]ATP by scintillation counting method
[16] = target: Serine/threonine-protein kinase MRCK alpha (Homo sapiens) (UniProt Q5VT25); assay: Inhibition of recombinant human MRCKalpha (1 to 473 residues) assessed as residual activity at 10 uM using KKRNRTLTV as substrate measured after 40 mins in presence of [gamma33P]ATP by scintillation counting method
[17] = target: Serine/threonine-protein kinase pim-2 (Homo sapiens) (UniProt Q9P1W9); assay: Inhibition of recombinant human Pim2 (2 to end residues) assessed as residual activity at 10 uM using RSRHSSYPAGT as substrate measured after 40 mins in presence of [gamma33P]ATP by scintillation counting method
[18] = tested on: Proto-oncogene tyrosine-protein kinase receptor Ret (Homo sapiens), P07949 [V804L]; assay: Inhibition of human Ret V804L mutant (658 to end residues) using KKKSPGEYVNIEFG as substrate measured after 40 mins in presence of [gamma33P]ATP by scintillation counting method; design: scale not given: the % may be the effect or the level left
[19] = tested on: Proto-oncogene tyrosine-protein kinase receptor Ret (Homo sapiens), P07949 [V804M]; assay: Inhibition of human Ret V804M mutant (658 to end residues) using […] as substrate measured after 40 mins in presence of [gamma33P]ATP by scintillation counting method; design: scale not given: the % may be the effect or the level left
[20] = tested on: SNF-related serine/threonine-protein kinase (Homo sapiens), Q9NRH2 [UNDEFINED MUTATION]; assay: Inhibition of human SNRK E97G/P116A mutant (65 to 409 residues) using KKLRRTLSFAEPG as substrate measured after 40 mins in presence of [gamma33P]ATP by scintillation counting method; design: scale not given: the % may be the effect or the level left
[21] = tested on: SW-620; assay: Induction of apoptosis in human SW620 cells assessed as late apoptotic cells at 100 nM measured after 48 hrs by Annexin V-FITC/propidium iodide staining-based flow cytometry (reference value: 1.8%); assay type: functional
[22] = tested on: SW-620; assay: Induction of apoptosis in human SW620 cells assessed as viable cells at 100 nM measured after 48 hrs by Annexin V-FITC/propidium iodide staining-based flow cytometry (reference value: 94.7%); assay type: functional; settings: SW-620, 48 h, read-out: Activity

Chain of Serine/threonine-protein kinase MRCK alpha (Homo sapiens) (Q5VT25 whole entry, the tested form may be a part): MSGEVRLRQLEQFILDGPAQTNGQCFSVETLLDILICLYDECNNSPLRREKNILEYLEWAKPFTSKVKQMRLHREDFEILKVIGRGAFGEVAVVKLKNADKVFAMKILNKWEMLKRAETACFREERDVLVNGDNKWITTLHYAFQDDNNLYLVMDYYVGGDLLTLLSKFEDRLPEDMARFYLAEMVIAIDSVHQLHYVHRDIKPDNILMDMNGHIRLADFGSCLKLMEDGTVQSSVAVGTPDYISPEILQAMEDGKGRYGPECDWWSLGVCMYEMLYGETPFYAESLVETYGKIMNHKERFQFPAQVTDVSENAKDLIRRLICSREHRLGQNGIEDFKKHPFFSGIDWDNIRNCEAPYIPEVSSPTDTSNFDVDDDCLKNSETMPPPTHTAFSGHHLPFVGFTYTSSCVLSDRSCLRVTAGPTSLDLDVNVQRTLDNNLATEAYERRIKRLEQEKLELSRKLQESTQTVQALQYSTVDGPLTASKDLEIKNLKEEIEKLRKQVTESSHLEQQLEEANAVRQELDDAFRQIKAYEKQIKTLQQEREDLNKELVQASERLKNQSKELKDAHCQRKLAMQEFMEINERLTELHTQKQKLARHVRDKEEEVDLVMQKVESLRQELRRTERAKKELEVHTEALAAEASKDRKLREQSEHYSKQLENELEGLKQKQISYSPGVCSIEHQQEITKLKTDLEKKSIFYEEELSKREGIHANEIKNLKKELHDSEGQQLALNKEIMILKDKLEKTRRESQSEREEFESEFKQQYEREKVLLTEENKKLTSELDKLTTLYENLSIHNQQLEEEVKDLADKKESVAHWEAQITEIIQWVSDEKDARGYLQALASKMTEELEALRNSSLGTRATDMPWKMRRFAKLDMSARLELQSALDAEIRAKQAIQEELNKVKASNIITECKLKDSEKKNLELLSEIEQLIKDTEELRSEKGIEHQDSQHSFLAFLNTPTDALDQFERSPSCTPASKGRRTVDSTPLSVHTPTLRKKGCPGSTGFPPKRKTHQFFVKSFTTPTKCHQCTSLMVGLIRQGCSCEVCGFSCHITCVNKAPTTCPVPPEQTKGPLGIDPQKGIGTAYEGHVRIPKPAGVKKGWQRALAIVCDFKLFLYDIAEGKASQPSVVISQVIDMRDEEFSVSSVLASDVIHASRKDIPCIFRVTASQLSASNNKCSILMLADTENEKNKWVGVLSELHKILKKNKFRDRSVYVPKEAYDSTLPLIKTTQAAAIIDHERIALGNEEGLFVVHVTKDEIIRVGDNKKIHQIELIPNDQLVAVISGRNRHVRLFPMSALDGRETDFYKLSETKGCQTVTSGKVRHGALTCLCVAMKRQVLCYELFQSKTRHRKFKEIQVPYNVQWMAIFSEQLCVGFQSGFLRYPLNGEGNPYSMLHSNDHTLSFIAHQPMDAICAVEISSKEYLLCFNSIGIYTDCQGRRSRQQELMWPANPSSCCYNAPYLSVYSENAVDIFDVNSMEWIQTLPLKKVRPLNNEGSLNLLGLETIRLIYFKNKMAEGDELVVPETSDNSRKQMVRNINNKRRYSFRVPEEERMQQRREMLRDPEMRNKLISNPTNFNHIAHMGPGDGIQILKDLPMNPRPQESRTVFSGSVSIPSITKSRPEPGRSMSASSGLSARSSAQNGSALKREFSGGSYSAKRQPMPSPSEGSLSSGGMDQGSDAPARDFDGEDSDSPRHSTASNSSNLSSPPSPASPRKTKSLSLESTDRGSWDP
Chain of Serine/threonine-protein kinase Nek3 (Homo sapiens) (P51956 whole entry, the tested form may be a part): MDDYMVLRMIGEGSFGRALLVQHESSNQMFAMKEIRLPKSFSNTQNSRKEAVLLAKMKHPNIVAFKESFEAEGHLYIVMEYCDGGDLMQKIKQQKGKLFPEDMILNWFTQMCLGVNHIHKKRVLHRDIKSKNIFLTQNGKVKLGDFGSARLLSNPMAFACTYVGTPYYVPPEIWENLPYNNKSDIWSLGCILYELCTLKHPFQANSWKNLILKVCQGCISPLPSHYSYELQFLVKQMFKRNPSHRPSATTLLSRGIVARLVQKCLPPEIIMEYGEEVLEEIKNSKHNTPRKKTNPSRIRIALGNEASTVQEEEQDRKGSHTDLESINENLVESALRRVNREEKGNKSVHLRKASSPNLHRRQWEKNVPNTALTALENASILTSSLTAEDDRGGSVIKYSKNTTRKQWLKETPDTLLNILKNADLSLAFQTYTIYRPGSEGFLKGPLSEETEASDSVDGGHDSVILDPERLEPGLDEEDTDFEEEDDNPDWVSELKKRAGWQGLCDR
Chain of Tyrosine-protein kinase HCK (Homo sapiens) (P08631 2-526 limits assumed): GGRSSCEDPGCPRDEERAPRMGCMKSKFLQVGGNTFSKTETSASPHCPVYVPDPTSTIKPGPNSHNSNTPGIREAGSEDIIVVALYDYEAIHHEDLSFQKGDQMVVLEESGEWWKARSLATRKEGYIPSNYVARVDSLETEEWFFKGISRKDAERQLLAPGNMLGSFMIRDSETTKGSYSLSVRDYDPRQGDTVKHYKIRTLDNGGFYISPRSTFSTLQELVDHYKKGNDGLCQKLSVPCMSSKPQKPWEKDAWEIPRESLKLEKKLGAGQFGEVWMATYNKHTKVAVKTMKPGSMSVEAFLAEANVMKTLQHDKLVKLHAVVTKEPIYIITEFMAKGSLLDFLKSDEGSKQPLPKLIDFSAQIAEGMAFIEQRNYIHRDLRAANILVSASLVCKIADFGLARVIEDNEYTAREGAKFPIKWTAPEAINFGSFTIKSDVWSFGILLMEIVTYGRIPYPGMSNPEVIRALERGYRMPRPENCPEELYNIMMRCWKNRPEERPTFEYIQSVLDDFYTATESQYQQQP
Chain of Ribosomal protein S6 kinase alpha-2 (Homo sapiens) (Q15349 whole entry): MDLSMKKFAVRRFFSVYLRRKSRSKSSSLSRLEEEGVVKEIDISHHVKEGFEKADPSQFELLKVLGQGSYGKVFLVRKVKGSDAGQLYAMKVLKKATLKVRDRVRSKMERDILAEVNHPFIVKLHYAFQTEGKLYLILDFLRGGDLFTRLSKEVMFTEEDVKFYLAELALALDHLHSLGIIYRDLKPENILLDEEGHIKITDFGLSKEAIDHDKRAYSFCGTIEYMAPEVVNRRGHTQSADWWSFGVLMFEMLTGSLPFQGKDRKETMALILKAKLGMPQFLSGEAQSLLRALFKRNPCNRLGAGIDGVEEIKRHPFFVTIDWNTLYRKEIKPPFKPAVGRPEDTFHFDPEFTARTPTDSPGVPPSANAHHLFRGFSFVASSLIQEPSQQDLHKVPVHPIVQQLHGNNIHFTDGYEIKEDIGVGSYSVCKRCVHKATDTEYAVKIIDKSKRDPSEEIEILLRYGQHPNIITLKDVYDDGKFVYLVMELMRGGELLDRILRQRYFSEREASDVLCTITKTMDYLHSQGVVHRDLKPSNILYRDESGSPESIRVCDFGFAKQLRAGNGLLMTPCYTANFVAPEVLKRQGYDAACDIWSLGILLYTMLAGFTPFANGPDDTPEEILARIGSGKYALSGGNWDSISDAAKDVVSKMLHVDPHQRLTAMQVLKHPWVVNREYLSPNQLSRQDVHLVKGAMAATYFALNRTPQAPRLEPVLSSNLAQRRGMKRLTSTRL
Chain of Mitogen-activated protein kinase kinase kinase kinase 4 (Homo sapiens) (O95819 2-1239 limits assumed): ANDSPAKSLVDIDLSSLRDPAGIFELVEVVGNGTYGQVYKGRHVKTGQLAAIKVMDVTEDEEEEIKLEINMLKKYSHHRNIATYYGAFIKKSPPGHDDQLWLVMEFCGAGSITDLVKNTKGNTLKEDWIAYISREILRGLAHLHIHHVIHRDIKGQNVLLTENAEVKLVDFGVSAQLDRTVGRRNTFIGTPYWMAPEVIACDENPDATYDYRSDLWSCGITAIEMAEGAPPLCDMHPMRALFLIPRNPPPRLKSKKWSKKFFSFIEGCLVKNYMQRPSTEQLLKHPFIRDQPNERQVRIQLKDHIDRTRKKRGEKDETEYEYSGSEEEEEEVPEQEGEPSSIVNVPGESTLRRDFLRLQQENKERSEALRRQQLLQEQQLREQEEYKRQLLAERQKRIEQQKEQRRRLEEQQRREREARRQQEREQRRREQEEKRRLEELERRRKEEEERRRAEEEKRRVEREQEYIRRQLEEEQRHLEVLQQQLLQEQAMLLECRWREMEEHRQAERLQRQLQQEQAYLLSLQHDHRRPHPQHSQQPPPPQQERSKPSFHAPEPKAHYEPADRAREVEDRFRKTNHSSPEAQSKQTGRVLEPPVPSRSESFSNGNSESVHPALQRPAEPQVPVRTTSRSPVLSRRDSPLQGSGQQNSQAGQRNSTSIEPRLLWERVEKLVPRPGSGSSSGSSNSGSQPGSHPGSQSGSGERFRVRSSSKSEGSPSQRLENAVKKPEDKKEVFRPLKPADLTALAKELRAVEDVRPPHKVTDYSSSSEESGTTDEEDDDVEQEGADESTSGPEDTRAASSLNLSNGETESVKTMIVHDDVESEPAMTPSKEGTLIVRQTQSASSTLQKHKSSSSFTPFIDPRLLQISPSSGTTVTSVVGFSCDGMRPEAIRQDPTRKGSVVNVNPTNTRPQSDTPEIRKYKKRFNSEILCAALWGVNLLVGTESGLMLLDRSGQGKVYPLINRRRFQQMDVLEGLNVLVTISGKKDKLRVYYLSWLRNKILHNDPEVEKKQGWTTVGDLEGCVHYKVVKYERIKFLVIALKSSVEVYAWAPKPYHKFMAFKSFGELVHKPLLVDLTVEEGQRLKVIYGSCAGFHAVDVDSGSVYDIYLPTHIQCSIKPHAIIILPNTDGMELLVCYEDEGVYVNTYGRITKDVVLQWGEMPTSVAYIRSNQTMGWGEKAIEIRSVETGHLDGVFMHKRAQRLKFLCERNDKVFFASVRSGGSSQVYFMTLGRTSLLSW
Chain of Serine/threonine-protein kinase Nek7 (Homo sapiens) (Q8TDX7 whole entry, looked up): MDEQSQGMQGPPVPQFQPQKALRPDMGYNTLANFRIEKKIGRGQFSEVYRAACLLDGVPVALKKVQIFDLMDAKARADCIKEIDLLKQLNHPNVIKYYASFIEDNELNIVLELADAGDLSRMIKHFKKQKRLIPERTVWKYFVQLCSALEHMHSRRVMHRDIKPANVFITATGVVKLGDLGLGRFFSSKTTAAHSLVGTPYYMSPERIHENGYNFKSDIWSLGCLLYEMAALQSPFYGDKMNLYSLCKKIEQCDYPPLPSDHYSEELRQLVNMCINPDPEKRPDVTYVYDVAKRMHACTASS

## Cc1cc(C)c(CNc2nc(Cl)nc3c2ncn3C2CCCC2)c(=O)[nH]1
[1]
  Activity: 114%
[2]
  Activity: 104%
[3]
  Activity: 106%
[4]
  Activity: 106%
[5]
  Activity: 102%
[6]
  Activity: 114%
[7]
  Activity: 102%
[8]
  Activity: 108%
[9]
  Activity: 101%
[10]
  Activity: 114%
[11]
  Activity: 102%
[12]
  Activity: 102%
[13]
  Activity: 115%
[14]
  Activity: 106%
[15]
  Activity: 114%
[16]
  Activity: 110%
[17]
  Activity: 104%
[18]
  Activity: 106%
[19]
  Activity: 106%
[20]
  Activity: 111%
[21]
  Activity: 23.1%
[22]
  viability at 0.1 µM: 66%
